Test results: patent US9265268B2, “Method of handling bananas” (priority 2009, dated 2016)

What was measured:
Type in all cases: in vivo, Musa
bananas [1] = experiment: Example US-7a: various number of bananas per bag (appearance); set-up: scale not given here; conditions: 1,000 ppb 1-MCP, Day Number 7
Method: Bananas were handled and tested as in Example US-1, except that the number of bananas per bag was varied. Concentration of 1-MCP was 1,000 ppb. Also, two different types of MAP bags were used: type M and type D, as described above. Bananas were evaluated on day #7 after treatment with 1-MCP.

bananas [2] = experiment: Example 2A: evaluation process A (4 days post-MCP in bag at 14° C., then 7 days at approx. 22° C.); conditions: for Color Stage (mean) / Sugar Spots (mean %): 4 days in bag at 14° C., then 7 days at approx. 22° C.
Source text: The color of banana peels is rated according to a seven stage rating scale: stage 1 (dark green); stage 2 (all light green); stage 3 (half green and half yellow); stage 4 (more yellow than green); stage 5 (green tips and necks); stage 6 (all yellow; maybe light green necks, no green tips); stage 7 (yellow flecked with brown). Consumers generally prefer to eat bananas in stage 5 or stage 6.
(§1) Bananas were harvested at 13 weeks of age. Fruit bunches were separated into hands, then washed, and excess latex was removed in chlorinated water tanks using standard commercial practices. The washed hands of bananas were further broken into clusters and treated with fungicide. Clusters were placed into plastic bags; each bag held approximately 1.4 kg (3 lbs) of bananas. The bananas remained in these bags until they were removed for evaluation (see below).
The plastic bags were either T bags or were modified-atmosphere bags (“MAP” bags). The T bags (also called “PE bags” herein) were typical of bags normally used in commerce for bananas. The bags were then placed into cartons. Each carton held 13 bags. Each carton either held MAP bags only or else held PE bags only. 20 cartons of MAP bags and 20 cartons of PE bags were prepared.
The cartons were placed in a refrigerated truck and transported to a storage facility. The distance from harvest to storage was approximately 100 km. The temperature in the refrigerated truck was 14 to 18° C. To simulate the effect of shipping over long distances, the cartons were placed in conventional cold storage room at 14° C. for two weeks. In storage, the cartons were placed so that air could circulate between and around each carton.
After the storage period, the thermostat of the holding room was raised to 18° C., and no further action was taken until the holding room was at 18° C. for 12 hours. Bananas were ripened using a 5-day schedule, as follows. The temperatures shown are pulp temperatures; if necessary, the thermostat was lowered so that pulp temperature remained at the desired temperature despite any respiration that may be taking place in the bananas.
On day 5 at approximately 4 pm, the cartons were divided in to seven groups: one untreated control (“UTC”) group (6 cartons) and six treatment groups. Each group had equal number of PE cartons and MAP cartons. The six treatment groups were as follows:
UTC cartons were placed in a shed that had good ventilation. The remaining cartons remained in the holding room. Four airtight tents were erected in the holding room. Each tent held all the cartons for one of the treatment groups PE-3-C, PE-10-C, MAP-3, and MAP-10.
(§2) At day 5 at approximately 4 pm, the bananas had reached color stage 2.5 to 3.5. Treatment groups PE-3-C, PE-10-C, MAP-3, and MAP-10 were then exposed to 1-MCP overnight at the concentrations shown above.
Some of the bananas from each group described in Example 2 were evaluated by process “A” as follows: After treatment groups PE-3-C, PE-10-C, MAP-3, and MAP-10 received exposure to 1-MCP, the bananas remained in their bags in the holding room at 14° C. for 4 days; then the bananas were removed from the bags and stored at approximately 22° C. for 7 days; then the bananas were evaluated.

bananas [3] = experiment: Example 2B: evaluation process B (3 days post-MCP); conditions: MAP-3 and MAP-10 groups (MAP bag, 300 or 1000 ppb 1-MCP); 3 days in bag at 14° C.
Source text: as §1, §2
This Example was the same as Example 2A, except that after exposure to 1-MCP, the bananas remained in their bags in the holding room at 14° C. for 3 days instead of 4 days.

[4] = MAP-10: MAP bag, 1000 ppb 1-MCP
[5] = PE-10-C: PE bag, 1000 ppb 1-MCP

CC1=CC1 [1-MCP, 1-methylcyclopropene]
Color Stage (bananas [1]; MAP type D, 1 bananas per bag): 6.7 | Sugar Spots (bananas [1]; MAP type D, 1 bananas per bag): 0.7 | Color Stage (bananas [1]; MAP type D, 2 bananas per bag): 5.5 | Sugar Spots (bananas [1]; MAP type D, 2 bananas per bag): 1.0 | Color Stage (bananas [1]; MAP type D, 3 bananas per bag): 5.5 | Sugar Spots (bananas [1]; MAP type D, 3 bananas per bag): 0.3 | Color Stage (bananas [1]; MAP type D, 4 bananas per bag): 5.5 | Sugar Spots (bananas [1]; MAP type D, 4 bananas per bag): 0.7 | Color Stage (bananas [1]; MAP type D, 5 bananas per bag): 4.8 | Sugar Spots (bananas [1]; MAP type D, 5 bananas per bag): 1.3 | Color Stage (bananas [1]; MAP type D, 6 bananas per bag): 5.2 | Sugar Spots (bananas [1]; MAP type D, 6 bananas per bag): 0.3 | Color Stage (bananas [1]; MAP type D, 7 bananas per bag): 4.8 | Sugar Spots (bananas [1]; MAP type D, 7 bananas per bag): 0.7 | Color Stage (bananas [1]; MAP type D, 8 bananas per bag): 4.5 | Sugar Spots (bananas [1]; MAP type D, 8 bananas per bag): 0.0 | Color Stage (bananas [1]; MAP type D, 9 bananas per bag): 4.5 | Sugar Spots (bananas [1]; MAP type D, 9 bananas per bag): 0.7 | Color Stage (bananas [1]; MAP type D, 10 bananas per bag): 4.5 | Sugar Spots (bananas [1]; MAP type D, 10 bananas per bag): 0.0 | Color Stage (bananas [1]; MAP type D, 11 bananas per bag): 4.3 | Sugar Spots (bananas [1]; MAP type D, 11 bananas per bag): 0.0 | Color Stage (bananas [1]; MAP type D, 12 bananas per bag): 4.5 | Sugar Spots (bananas [1]; MAP type D, 12 bananas per bag): 0.0 | Color Stage (bananas [1]; MAP type M, 1 bananas per bag): 6.2 | Sugar Spots (bananas [1]; MAP type M, 1 bananas per bag): 2.0 | Color Stage (bananas [1]; MAP type M, 2 bananas per bag): 5.3 | Sugar Spots (bananas [1]; MAP type M, 2 bananas per bag): 1.7 | Color Stage (bananas [1]; MAP type M, 3 bananas per bag): 4.8 | Sugar Spots (bananas [1]; MAP type M, 3 bananas per bag): 2.0 | Color Stage (bananas [1]; MAP type M, 4 bananas per bag): 5.3 | Sugar Spots (bananas [1]; MAP type M, 4 bananas per bag): 1.0 | Color Stage (bananas [1]; MAP type M, 5 bananas per bag): 5.2 | Sugar Spots (bananas [1]; MAP type M, 5 bananas per bag): 1.0 | Color Stage (bananas [1]; MAP type M, 6 bananas per bag): 4.8 | Sugar Spots (bananas [1]; MAP type M, 6 bananas per bag): 1.0 | Color Stage (bananas [1]; MAP type M, 7 bananas per bag): 5.0 | Sugar Spots (bananas [1]; MAP type M, 7 bananas per bag): 0.0 | Color Stage (bananas [1]; MAP type M, 8 bananas per bag): 4.5 | Sugar Spots (bananas [1]; MAP type M, 8 bananas per bag): 1.0 | Color Stage (bananas [1]; MAP type M, 9 bananas per bag): 4.5 | Sugar Spots (bananas [1]; MAP type M, 9 bananas per bag): 0.7 | Color Stage (bananas [1]; MAP type M, 10 bananas per bag): 5.2 | Sugar Spots (bananas [1]; MAP type M, 10 bananas per bag): 1.0 | Color Stage (bananas [1]; MAP type M, 11 bananas per bag): 4.5 | Sugar Spots (bananas [1]; MAP type M, 11 bananas per bag): 0.0 | Color Stage (bananas [1]; MAP type M, 12 bananas per bag): 4.5 | Sugar Spots (bananas [1]; MAP type M, 12 bananas per bag): 0.0 | Comments (additional observations) (bananas [2]; MAP-3: MAP bag, 300 ppb 1-MCP): Fruit with excellent bright yellow color. Only high | Delay in sugar spot development longer than MAP-0 (bananas [2]; MAP-3: MAP bag, 300 ppb 1-MCP): at least three | Color Stage (mean) (bananas [2]; MAP-3: MAP bag, 300 ppb 1-MCP): 6.3 | Sugar Spots (mean %) (bananas [2]; MAP-3: MAP bag, 300 ppb 1-MCP): 3% | Comments (additional observations) (bananas [2]; [4]): Almost all fruit was at the right color for sale, | Delay in sugar spot development longer than MAP-0 (bananas [2]; [4]): at least three | Color Stage (mean) (bananas [2]; [4]): 6.1 | Sugar Spots (mean %) (bananas [2]; [4]): 2% | Comments (additional observations) (bananas [2]; PE-3-C: PE bag, 300 ppb 1-MCP): Some fruit was in a good color stage. However most | Color Stage (mean) (bananas [2]; PE-3-C: PE bag, 300 ppb 1-MCP): 6.8 | Sugar Spots (mean %) (bananas [2]; PE-3-C: PE bag, 300 ppb 1-MCP): 35% | Comments (additional observations) (bananas [2]; [5]): Some fruit was in a good color stage. However most | Color Stage (mean) (bananas [2]; [5]): 6.9 | Sugar Spots (mean %) (bananas [2]; [5]): 73% | color and sugar spots versus comparative examples (bananas [3]): same type of improvements over the comparative examples as in Example 2A
